From patent US11524941B2, “Pyrazole compounds as LSD1 inhibitors and applications thereof” (MEDSHINE DISCOVERY INC., priority 2020, dated 2022)
Where a name gives a salt, the structure may show the parent alone.

Tested on: NCI-H1417 cells
Assay: Proliferation inhibitory activity against NCI-H1417 cells (CellTiter-Glo)
Format: cell-based
Conditions: Homo sapiens, 240 h, 10 days incubation, starting concentration 10 μM, read-out: IC50 (nM), NCI-H1417 cell proliferation inhibition
Experimental: Experimental purpose: To detect the inhibitory activity of the compounds against NCI-H1417 cells.
Experimental materials: RPMI 1640 medium, fetal bovine serum, Promega CellTiter-Glo reagent. The NCI-H1417 cell line was purchased from ATCC. Envision multilabel analyzer (PerkinElmer).
Experimental method: The compounds were dissolved to 10 mM, and the compounds were diluted 5 times with DMSO in the compound plate. The starting concentration of the compound was 2 mM, diluted 3 times with Bravo to 10 concentrations. Echo was used to transfer 250 nL to the top and bottom double wells of a blank 384 cell plate, and 250 nL of DMSO/compound was added to a cell suspension of 1000 cells/50 μL per well, and the compounds were diluted 200 times, i.e. the starting concentration was 10 μM. Cell plates were incubated in a carbon dioxide incubator for 10 days. 25 μL of Promega CellTiter-Glo reagent per well was added to the cell plate, and the mixture was shaken for 10 minutes at room temperature to stabilize the luminescence signal. Readings were taken using a PerkinElmer Envision multilabel analyzer.
Data analysis: The equation (Max-Ratio)/(Max-Min)*100% was used to convert the original data into inhibition rate, the IC50 value can be obtained by curve fitting with four parameters. (derived from 205 mode in XLFIT5, iDBS)

IC50: 107 nM
SMILES: CC(C)(O)Cn1nnc2cc(-c3cn(CC(=O)N4CCC[C@@H](N)C4)nc3-c3ccc(C#N)c(F)c3)ccc21 [Hydrochloride of compound 22]
